Assay results: US12037354B2, “Cyclic pantetheine derivatives and uses thereof” (VectivBio Comet AG, priority 2018, dated 2024)
Where two headings read alike, the source gives them in different places.

Tests used:
[1] = tested on: Peripheral blood mononuclear cells co-cultured with B-cells (BT system); test: BioMAP BT system, Example 829; assay type: cell-based, human; details: BT system; 10 uM
Method: The BioMAP platform (BioMAP® Diversity PLUS Panel from Eurofins) is an in vitro phenotypic profiling technology that screened the compounds of the present disclosure (hereafter indicated as test agents) in human primary cell-based systems modelling complex tissue and disease states. The BioMAP assays were performed using the Eurofin's BioMAP Technology Platform as (see references 1 to 13 in the example 824 section) to model different diseases on primary cell-based model systems. These systems consisted of either single primary cell types or co-culture cells. Adherent cell types were cultured or co-cultured in 96 or 384-well plates until confluence followed by the addition of compounds prepared in DMSO at a final concentration of ≤0.1%. In each cell-based system, primary cells from heathy donors (2-6 donors) were pooled and treated with compounds at 1 and 10 μM dose 1 h prior to stimulation and remain in culture as indicated in
Example 825, Example 826, Example 827, Example 828, Example 829, Example 830, Example 831, Example 832, Example 833, Example 834, Example 835, Example 836 and Example 837. For on the BioMAP® Diversity PLUS® Panel, please see the following references, which are incorporate herein.
Following the general procedure as described in Example 824, Peripheral blood mononuclear cells were co-cultured with B-cells (BT system) were treated with either α-IgM and TCR ligands for 72 h in the presence or absence of the compounds to model asthma, allergy, oncology and autoimmunity. Biomarkers read out were; B-cell proliferation, PBMC cytotoxicity, secreted IgG, sIL-17A, sIL-17F, sIL-2, sIL-6 and s-TNFα.

HepG2 cells = test: Glucose uptake Glo Assay, Example 821; assay type: cell-based; details: for activation at 50 µM / activation at 10 µM: Homo sapiens, 20 min, read-out: % increase in Glucose Uptake
Method: The effect of compounds from the present disclosure on glucose uptake was determined in HepG2 cells (ATCC, HB-8065) using the glucose uptake Glo Assay Kit (Promega, 11343 according to manufacturer instructions. HepG2 cells were cultured in complete DMEM-glucose media (Gibco) supplemented with 10% FBS (37° C. incubator with 5% CO2) and seeded in 96-well plates at 30,000 cells/well. After removing the complete media, 100 μL/well of serum-free, high-glucose DMEM media were added to the wells and incubated overnight (37° C. incubator with 5% CO2). Media was then replaced with 100 μl/well DPBS containing 0.6°/o BSA and starved for 1 hour. Next, DPBS was removed and 45 μl/well of insulin (100 nM) or compounds (10 μM-50 μM) were added to the wells and incubated for 10 minutes (37° C. incubator with 5% CO2). Insulin and compounds were prepared in DPBS with 0.6% BSA with a final DMSO concentration of 0.1%. Next, 5 μl of 2DG (10 mM) in DPBS were added per well and allowed to incubate for 20 minutes followed by addition of 25 μl stop buffer. 37.5 μl of the mixture were then transferred to a new plate and 12.5 μl of Neutralization buffer added to the wells. After, 50 μl of 2DG6P detection Reagent were added and incubated for 0.5-1 hour at room temperature. Luminescence was measured with 0.3-1 second integration on a luminometer.

CCOC(=O)CCC(=O)SCCNC(=O)CCNC(=O)[C@@H]1OP(=O)(N[C@@H](C)C(=O)OCC)OCC1(C)C (some centres unmarked) [Compound 206]
% increase in sIL-6 [1]: ≥20%

C[C@@H](O)CC(=O)SCCNC(=O)CCNC(=O)[C@@H]1OC(=O)OCC1(C)C [Compound 485]
activation at 50 µM (HepG2 cells; 50 uM): ≥ 10%
% increase in Glucose Uptake (HepG2 cells; concentration tested 50 uM): ≥10%

COC(=O)C(CC(=O)O)SCCNC(=O)CCNC(=O)[C@@H]1OC(=O)OCC1(C)C (some centres unmarked) [Compound 498]
activation at 50 µM (HepG2 cells; 50 uM (Example 971)): ≥ 10%

COC(=O)CC(SCCNC(=O)CCNC(=O)[C@@H]1OC(=O)OCC1(C)C)C(=O)OCC[N+](C)(C)C (some centres unmarked) [Compound 503]
activation at 50 µM (HepG2 cells; 50 uM (Example 972)): ≥ 20%

COC(=O)CC1(C)OCC(C)(C)[C@H](C(=O)NCCC(=O)NCCSC(=O)CCC(=O)O)O1 (some centres unmarked) [Compound 609]
activation at 10 µM (HepG2 cells): ≥ 10%
% increase in Glucose Uptake (HepG2 cells; concentration tested 10 uM): ≥10%

COC(=O)CCC(=O)SCCNC(=O)CCNC(=O)[C@@H]1OC(C)(C)OCC1(C)C [Compound 852, methyl 4-oxo-4-[[2-(3-[[(4R)-2,2,5,5-tetramethyl-1,3-dioxan-4-yl]formamido]propanamido)ethyl]sulfanyl]butanoate]
activation at 50 µM (HepG2 cells; 50 uM): ≥ 20%
% increase in Glucose Uptake (HepG2 cells; concentration tested 50 uM): ≥20%

CC(=O)NCCCC(=O)SCCNC(=O)CCNC(=O)[C@@H]1OC(C)(C)OCC1(C)C [Compound 853]
% increase in Glucose Uptake (HepG2 cells; 10 uM (Example 973)): ≥30%
activation at 10 µM (HepG2 cells): ≥ 30%

CCCCCCC(=O)SCCNC(=O)CCNC(=O)[C@@H]1OC(C)(C)OCC1(C)C [Compound 855, N-[2-(heptanoylsulfanyl)ethyl]-3-[[(4R)-2,2,5,5-tetramethyl-1,3-dioxan-4-yl]formamido]propanamide]
activation at 50 µM (HepG2 cells; 50 uM): ≥ 30%
% increase in Glucose Uptake (HepG2 cells; concentration tested 50 uM): ≥30%

COC(=O)C(=O)SCCNC(=O)CCNC(=O)[C@@H]1OC(C)(C)OCC1(C)C [Compound 856]
% increase in Glucose Uptake (HepG2 cells; 10 uM (Example 973)): ≥30%
activation at 10 µM (HepG2 cells): ≥ 30%

COC(=O)/C=C/C(=O)SCCNC(=O)CCNC(=O)[C@@H]1OC(C)(C)OCC1(C)C [Compound 858, methyl (2E)-4-oxo-4-[[2-(3-[[(4R)-2,2,5,5-tetramethyl-1,3-dioxan-4-yl]formamido]propanamido)ethyl]sulfanyl]but-2-enoate]
% increase in Glucose Uptake (HepG2 cells; 10 uM (Example 973)): ≥30%
activation at 10 µM (HepG2 cells): ≥ 30%

CC(=O)CC(=O)SCCNC(=O)CCNC(=O)[C@@H]1OC(C)(C)OCC1(C)C [Compound 860, N-[2-[(3-oxobutanoyl)sulfanyl]ethyl]-3-[[(4R)-2,2,5,5-tetramethyl-1,3-dioxan-4-yl]formamido]propanamide]
activation at 50 µM (HepG2 cells; 50 uM): ≥ 10%
% increase in Glucose Uptake (HepG2 cells; concentration tested 50 uM): ≥10%

CCC(=O)SCCNC(=O)CCNC(=O)[C@@H]1OC(C)(C)OCC1(C)C [Compound 861, N-[2-(propanoylsulfanyl)ethyl]-3-[[(4R)-2,2,5,5-tetramethyl-1,3-dioxan-4-yl]formamido]propanamide]
activation at 50 µM (HepG2 cells; 50 uM): ≥ 20%
% increase in Glucose Uptake (HepG2 cells; concentration tested 50 uM): ≥20%

CC1(C)COP(=O)(OCc2ccccc2)O[C@H]1C(=O)NCCC(=O)NCCS (some centres unmarked) [Compound 862]
activation at 10 µM (HepG2 cells): ≥ 20%
activation at 50 µM (HepG2 cells; 50 uM): ≥ 10%
% increase in Glucose Uptake (HepG2 cells; concentration tested 10 uM): ≥20%
% increase in Glucose Uptake (HepG2 cells; concentration tested 50 uM): ≥10%

COC(=O)CCC(=O)SCCNC(=O)CCNC(=O)[C@@H]1OP(=O)(OCc2ccccc2)OCC1(C)C (some centres unmarked) [Compound 863]
activation at 50 µM (HepG2 cells; 50 uM): ≥ 10%
% increase in Glucose Uptake (HepG2 cells; concentration tested 50 uM): ≥10%

C[C@@H](O)CC(=O)SCCNC(=O)CCNC(=O)[C@@H]1OP(=O)(OCc2ccccc2)OCC1(C)C (some centres unmarked) [Compound 864]
activation at 50 µM (HepG2 cells; 50 uM): ≥ 20%
% increase in Glucose Uptake (HepG2 cells; concentration tested 50 uM): ≥20%

CCOP1(=O)OCC(C)(C)[C@H](C(=O)NCCC(=O)NCCS)O1 (some centres unmarked) [Compound 865]
activation at 10 µM (HepG2 cells): ≥ 20%
% increase in Glucose Uptake (HepG2 cells; concentration tested 10 uM): ≥20%

COC(=O)CC1(C)OCC(C)(C)[C@H](C(=O)NCCC(=O)NCCS)O1 (some centres unmarked) [Compound 866]
% increase in Glucose Uptake (HepG2 cells; 10 uM (Example 973)): ≥30%
activation at 10 µM (HepG2 cells): ≥ 30%

C/C=C/C(=O)CC(=O)SCCNC(=O)CCNC(=O)[C@@H]1OP(=O)(OCc2ccccc2)OCC1(C)C (some centres unmarked) [Compound 867]
activation at 10 µM (HepG2 cells): ≥ 20%
% increase in Glucose Uptake (HepG2 cells; concentration tested 10 uM): ≥20%

CC1(C)OCC(C)(C)[C@H](C(=O)NCCC(=O)NCCSC(=O)C(=O)O)O1 [Compound 868]
% increase in Glucose Uptake (HepG2 cells; 10 uM (Example 973)): ≥30%
activation at 10 µM (HepG2 cells): ≥ 30%

CC1(C)COP(=O)(O)O[C@H]1C(=O)NCCC(=O)NCCS [Compound 869]
activation at 10 µM (HepG2 cells): ≥ 10%
% increase in Glucose Uptake (HepG2 cells; concentration tested 10 uM): ≥10%

CC1(C)OCC(C)(C)[C@H](C(=O)NCCC(=O)NCCSSCCNC(=O)CCNC(=O)[C@@H]2OC(C)(C)OCC2(C)C)O1 [Compound 870]
activation at 10 µM (HepG2 cells): ≥ 30%
% increase in Glucose Uptake (HepG2 cells; concentration tested 10 uM): ≥30%
